Results published in ChEMBL document CHEMBL1201862, “PubChem BioAssay data set” (2004).
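Briefly, cells in 96-well plates were exposed to five compound concentrations for 48 h, and endpoints were estimated by linear interpolation. GI50 is the concentration that inhibits growth by half.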 Calls of active or inactive are those of the source. Cut-off read from the data, not from the text of the source: active = GI50 up to about 1.1 µM and inactive = higher.

Columns and labels:
Experiment in all cases: NCI anticancer screen, dose series, 48 h
A498 = test system: A498
HOP-92 = test system: HOP-92
MDA-MB-231 = test system: MDA-MB-231
HCT-116 = test system: HCT-116
M14 = test system: M14
786-0 = test system: 786-0
HOP-62 = test system: HOP-62
MCF7 = test system: MCF7
MOLT-4 = test system: MOLT-4
TK-10 = test system: TK-10
NCI-H522 = test system: NCI-H522
CAKI-1 = test system: CAKI-1
SK-OV-3 = test system: SK-OV-3
HT-29 = test system: HT-29
DU-145 = test system: DU-145
SN12C = test system: SN12C
KM12 = test system: KM12
A549 = test system: A549
MDA-MB-435 = test system: MDA-MB-435
PC-3 = test system: PC-3
SF-268 = test system: SF-268
SK-MEL-28 = test system: SK-MEL-28
OVCAR-4 = test system: OVCAR-4
SNB-19 = test system: SNB-19
NCI-H23 = test system: NCI-H23
UACC-62 = test system: UACC-62
SF-295 = test system: SF-295
RPMI-8226 = test system: RPMI-8226
MDA-N = test system: MDA-N
K562 = test system: K562
OVCAR-3 = test system: OVCAR-3
SF-539 = test system: SF-539
SK-MEL-5 = test system: SK-MEL-5
NCI/ADR-RES = test system: NCI/ADR-RES
RXF 393 = test system: RXF 393
SW-620 = test system: SW-620
T47D = test system: T47D
OVCAR-8 = test system: OVCAR-8
UO-31 = test system: UO-31
ACHN = test system: ACHN
OVCAR-5 = test system: OVCAR-5
SK-MEL-2 = test system: SK-MEL-2
NCI-H460 = test system: NCI-H460
COLO 205 = test system: COLO 205
U-251 = test system: U-251
HCT-15 = test system: HCT-15
Malme-3M = test system: Malme-3M
SNB-75 = test system: SNB-75
UACC-257 = test system: UACC-257
IGROV-1 = test system: IGROV-1
NCI-H226 = test system: NCI-H226
HL-60 = test system: HL-60
EKVX = test system: EKVX
HCC 2998 = test system: HCC 2998
CCRF-CEM = test system: CCRF-CEM
LOX IMVI = test system: LOX IMVI
SR = test system: SR

COC(=O)C1C2C=CC(C2)N1S(=O)(=O)c1ccccc1 (configuration not stated)
GI50 (A498): > 100 µM (inactive)
GI50 (HOP-92): 33 µM (inactive)
GI50 (MDA-MB-231): > 100 µM (inactive)
GI50 (HCT-116): > 100 µM (inactive)
GI50 (M14): > 100 µM (inactive)
GI50 (786-0): > 100 µM (inactive)
GI50 (HOP-62): > 100 µM (inactive)
GI50 (MCF7): > 100 µM (inactive)
GI50 (MOLT-4): > 100 µM (inactive)
GI50 (TK-10): > 100 µM (inactive)
GI50 (NCI-H522): > 100 µM (inactive)
GI50 (CAKI-1): > 100 µM (inactive)
GI50 (SK-OV-3): > 100 µM (inactive)
GI50 (HT-29): > 100 µM (inactive)
GI50 (DU-145): > 100 µM (inactive)
GI50 (SN12C): > 100 µM (inactive)
GI50 (KM12): > 100 µM (inactive)
GI50 (A549): > 100 µM (inactive)
GI50 (MDA-MB-435): > 100 µM (inactive)
GI50 (PC-3): > 100 µM (inactive)
GI50 (SF-268): > 100 µM (inactive)
GI50 (SK-MEL-28): > 100 µM (inactive)
GI50 (OVCAR-4): > 100 µM (inactive)
GI50 (SNB-19): > 100 µM (inactive)
GI50 (NCI-H23): > 100 µM (inactive)
GI50 (UACC-62): > 100 µM (inactive)
GI50 (SF-295): > 100 µM (inactive)
GI50 (RPMI-8226): > 100 µM (inactive)
GI50 (MDA-N): > 100 µM (inactive)
GI50 (K562): > 100 µM (inactive)
GI50 (OVCAR-3): > 100 µM (inactive)
GI50 (SF-539): > 100 µM (inactive)
GI50 (SK-MEL-5): > 100 µM (inactive)
GI50 (NCI/ADR-RES): > 100 µM (inactive)
GI50 (RXF 393): > 100 µM (inactive)
GI50 (SW-620): > 100 µM (inactive)
GI50 (T47D): > 100 µM (inactive)
GI50 (OVCAR-8): > 100 µM (inactive)
GI50 (UO-31): > 100 µM (inactive)
GI50 (ACHN): > 100 µM (inactive)
GI50 (OVCAR-5): > 100 µM (inactive)
GI50 (SK-MEL-2): > 100 µM (inactive)
GI50 (NCI-H460): > 100 µM (inactive)
GI50 (COLO 205): > 100 µM (inactive)
GI50 (U-251): > 100 µM (inactive)
GI50 (HCT-15): > 100 µM
GI50 (Malme-3M): > 100 µM (inactive)

C=C1C(=O)O[C@@H]2C(=O)[C@@H](C)CCC/C(C)=C/CC[C@@]3(C)O[C@@H]3C[C@@H]12
GI50 (A498): > 100 µM (inactive)
GI50 (HOP-92): 13.2 µM (inactive)
GI50 (MDA-MB-231): 53.8 µM (inactive)
GI50 (HCT-116): 29.4 µM (inactive)
GI50 (M14): 54.2 µM (inactive)
GI50 (786-0): 21.3 µM (inactive)
GI50 (HOP-62): > 100 µM (inactive)
GI50 (MCF7): 36.3 µM (inactive)
GI50 (SNB-75): 0.438 µM (active)
GI50 (MOLT-4): 28.6 µM (inactive)
GI50 (UACC-257): 56.8 µM (inactive)
GI50 (TK-10): 27.7 µM (inactive)
GI50 (NCI-H522): 12.1 µM (inactive)
GI50 (CAKI-1): 19.9 µM (inactive)
GI50 (SK-OV-3): > 100 µM (inactive)
GI50 (IGROV-1): 15.7 µM (inactive)
GI50 (HT-29): 14.3 µM (inactive)
GI50 (DU-145): 75.2 µM (inactive)
GI50 (SN12C): 40.3 µM (inactive)
GI50 (NCI-H226): > 100 µM (inactive)
GI50 (KM12): 29.8 µM (inactive)
GI50 (HL-60): 16.5 µM (inactive)
GI50 (A549): > 100 µM (inactive)
GI50 (EKVX): 37.7 µM (inactive)
GI50 (MDA-MB-435): 51.3 µM (inactive)
GI50 (PC-3): 47 µM (inactive)
GI50 (SK-MEL-28): > 100 µM (inactive)
GI50 (OVCAR-4): 79.4 µM (inactive)
GI50 (SNB-19): > 100 µM (inactive)
GI50 (NCI-H23): > 100 µM (inactive)
GI50 (UACC-62): 41.7 µM (inactive)
GI50 (HCC 2998): > 100 µM (inactive)
GI50 (SF-295): > 100 µM (inactive)
GI50 (CCRF-CEM): 11.8 µM (inactive)
GI50 (RPMI-8226): 18.6 µM (inactive)
GI50 (MDA-N): 34.4 µM (inactive)
GI50 (K562): 16.4 µM (inactive)
GI50 (OVCAR-3): 46.3 µM (inactive)
GI50 (SF-539): 25.2 µM (inactive)
GI50 (SK-MEL-5): 29.9 µM (inactive)
GI50 (NCI/ADR-RES): 95.3 µM (inactive)
GI50 (RXF 393): 3.75 µM (inactive)
GI50 (SW-620): 20.8 µM (inactive)
GI50 (T47D): 87.9 µM (inactive)
GI50 (OVCAR-8): 68.5 µM (inactive)
GI50 (UO-31): 92.7 µM (inactive)
GI50 (ACHN): 36.9 µM (inactive)
GI50 (OVCAR-5): > 100 µM (inactive)
GI50 (SK-MEL-2): > 100 µM (inactive)
GI50 (LOX IMVI): 18.9 µM (inactive)
GI50 (COLO 205): 24 µM (inactive)
GI50 (U-251): 98.9 µM (inactive)
GI50 (HCT-15): 20.2 µM
GI50 (Malme-3M): 23 µM (inactive)

COC(=O)C1=CC(NC(=O)OCc2ccccc2)C(C(=O)c2ccccc2)C[C@@H]1Sc1ccccc1 (some centres not stated)
GI50 (HL-60): 1.09 µM (active)
GI50 (CCRF-CEM): 1.47 µM (inactive)
GI50 (SR): < 0.01 µM (active)
GI50 (K562): 2.19 µM (inactive)

CC1(C)CC(=O)C(C(CC(c2ccccc2)c2cc3c(cc2O)OCO3)C2=C(O)CC(C)(C)CC2=O)=C(O)C1 (configuration not stated)
GI50 (A498): > 10 µM (inactive)
GI50 (HOP-92): > 10 µM (inactive)
GI50 (MDA-MB-231): > 10 µM (inactive)
GI50 (HCT-116): > 10 µM (inactive)
GI50 (M14): > 10 µM (inactive)
GI50 (SNB-75): > 10 µM (inactive)
GI50 (TK-10): > 10 µM (inactive)
GI50 (CAKI-1): > 10 µM (inactive)
GI50 (IGROV-1): > 10 µM (inactive)
GI50 (HT-29): > 10 µM (inactive)
GI50 (DU-145): > 10 µM (inactive)
GI50 (SN12C): > 10 µM (inactive)
GI50 (NCI-H226): > 10 µM (inactive)
GI50 (KM12): > 10 µM (inactive)
GI50 (A549): > 10 µM (inactive)
GI50 (EKVX): > 10 µM (inactive)
GI50 (MDA-MB-435): > 10 µM (inactive)
GI50 (PC-3): > 10 µM (inactive)
GI50 (SF-268): > 10 µM (inactive)
GI50 (OVCAR-4): > 10 µM (inactive)
GI50 (SNB-19): > 10 µM (inactive)
GI50 (NCI-H23): > 10 µM (inactive)
GI50 (SF-295): > 10 µM (inactive)
GI50 (MDA-N): > 10 µM (inactive)
GI50 (OVCAR-3): > 10 µM (inactive)
GI50 (SF-539): > 10 µM (inactive)
GI50 (SK-MEL-5): > 10 µM (inactive)
GI50 (NCI/ADR-RES): > 10 µM (inactive)
GI50 (RXF 393): > 10 µM (inactive)
GI50 (SW-620): > 10 µM (inactive)
GI50 (OVCAR-8): > 10 µM (inactive)
GI50 (UO-31): > 10 µM (inactive)
GI50 (ACHN): > 10 µM (inactive)
GI50 (OVCAR-5): > 10 µM (inactive)
GI50 (COLO 205): > 10 µM (inactive)
GI50 (U-251): > 10 µM (inactive)
GI50 (HCT-15): > 10 µM
